In US6987122B2, “2-(1H-indol-3-yl)-2-oxo-acetic acid amides with antitumor activity” (Novuspharma S.p.A., priority 2000, dated 2006):

Row | melting point | SMILES
1 | 218 to 220 °C | O=C(Nc1nncs1)C(=O)c1cn(Cc2ccc(F)cc2)c2ccccc12
2 | 233 to 237 °C | O=C(Nc1nccs1)C(=O)c1cn(Cc2ccc(F)cc2)c2ccccc12
